Data: US20180169045A1, “AMINO ACID COMPOSITIONS AND METHODS FOR THE TREATMENT OF LIVER DISEASES” (AXCELLA HEALTH INC., priority 2016, published 2018)

Columns and labels:
Type in all cases: cell-based
[1] = test system: Primary human hepatic stellate cells; test: TNFα-induced IL-6 secretion in primary human hepatic stellate cells (ELISA); details: for IL-6 cytokine secretion, in words: primary human hepatic stellate cells from two donors, 3 ng/mL TNFα, 12 h
Experimental: (§1) Primary human hepatic stellate cells were obtained from Samsara Sciences based on the following criteria for selecting donors: adult age (between 18 and 50 years), normal BMI (>18.5 and <25), and absence of confounding liver disease. Primary human hepatic stellate cells grown in Complete HSC Medium to ˜80% confluence in T75 or T150 flasks below passage 10 were seeded into sterile, collagen I coated, 96-well optical plastic microplates (ThermoScientific, 152036) at 4000 cells per well ([…]) and incubated for 6 hours at 37° C., 5% CO2 in a humidified incubator.
(§2) After 6 hours, plates were removed from the incubator and the medium gently pipetted off and washed once with 150 μL per well DPBS. The DPBS was removed and the pretreatment medium (±single amino acid dropout, 1×HMDB DMEM+3% dialyzed FBS+0.2% Primocin, ±supplemental amino acid dose; see experiment for medium composition) was applied to the cells at 150 μL per well. Plates were returned to the incubator overnight, ˜14-15 hours.
(§3) After overnight pretreatment, the medium was removed from the cells, and the same pretreatment medium, now supplemented with 3 ng/mL TNFα is applied. Each plate contained 3 ng/mL TNFα in 1× human plasma amino acid (HMDB or PAA) concentration medium, 0 ng/mL in 1×HMDB, and 3 ng/mL TNFα+50 nM Bengamide in 1×HMDB to serve as controls. Plates were incubated for 12 hours at 37° C., 5% CO2.
(§4) After 12 hour stimulus with TNFα, supernatant was removed and frozen at −80° C. in two separate aliquots. Plates were washed gently once with DPBS and 100 μL per well of 1×HMDB DMEM+3% dialyzed FBS+0.2% Primocin+10% CCK-8 viability reagent (Dojindo). Plates were incubated for 1 hour at 37° C., 5% CO2.
(§5) After 1 hour of incubation, viability was measured on the Synergy plate reader (Absorbance at 977 (test), 900 (reference), and 450 (CCK8) nm). Immediately, the medium was removed and the plates were fixed with 70 μL per well 4% paraformaldehyde in PBS at room temperature for 20 minutes, followed by two 150 μL PBS washes, and stored with 100 μL per well PBS at 4° C. until immunofluorescence staining.
(§6) Human CCL2/MCP1 and Human IL-6 were measured by ELISA (Human […] DuoSet ELISA, R&D Systems; Human IL-6 DuoSet ELISA, R&D Systems) at 1/5 and 1/20 dilution in 1× Reagent Diluent (Reagent Ancillary Kit 2, R&D Systems). Data were normalized to the specific per well cell density determined by Hoechst stained nuclei count.

[2] = test system: Primary human hepatic stellate cells; test: TNFα-induced MCP-1 secretion in primary human hepatic stellate cells (ELISA); details: for MCP-1 chemokine secretion, in words: primary human hepatic stellate cells from two donors, 3 ng/mL TNFα, 12 h
Experimental: as §1, §2, §3, §4, §5, §6

[3] = test system: Primary human PMBC derived macrophages; test: LPS-induced TNFa secretion in primary human monocyte-derived macrophages (ELISA); design: TNFa Measurements Mean (baseline subtracted): unit not given beside the values; details: for LPS-induced TNFa secretion, in words: primary human monocyte-derived macrophages
Experimental: Isolation of Peripheral Blood Mononuclear Cell (PBMC) Unpurified buffy coats (Research Blood Components) were carefully poured into 50 mL centrifuge tubes and diluted with room temperature Dulbecco's Phosphate Buffered Saline (dPBS) with Calcium and Magnesium (Gibco). Diluted buffy coats were further divided into four total 50 mL centrifuge tubes at 20 mL per tube. Lymphocyte Separation Medium (Corning) was carefully pipetted to the bottom of each centrifuge tube. Mixtures were centrifuged at 850×g for 32 minutes at 20° C. with 0 deceleration and acceleration.
CD14+ cells were selected using EasySep™ Human CD14 Positive Selection Kit II ([…] Technologies). Cells were resuspended in cold EasySep™ Buffer ([…] Technologies) at 1×10^8 cells/mL. A total of 100 uL/mL EasySep™ Human CD14 Positive Selection Cocktail II was added to the cell suspension, mixed, and incubated at room temperature for 10 minutes. A total of 100 uL/mL RapidSpheres were added to the mixture and incubated at room temperature for 3 minutes after mixing, then RoboSep buffer was added to bring up the total volume to 10 mL. The mixture in a 15 mL tube was placed in magnet and incubated at room temperature for 3 minutes. Supernatant was discarded and 10 mL fresh EasySep™ buffer was added to 15 mL tube. The addition of RoboSep buffer, mixing, and discarding of supernatant was repeated two more times.
Negative and positive fractions were centrifuged at 490×g for 5 minutes at 20° C. with acceleration of 9, deceleration of 9, and resuspended in DMEM (Gibco) and 10% Heat Inactivated Fetal Bovine Serum (Atlanta Bio) and Penicillin/Streptomycin. Cells were counted and centrifuged again at 490×g for 5 minutes at 20° C. with acceleration of 9, deceleration of 9. After centrifugation, cell were resuspended in DMEM (Gibco) and 10% Heat Inactivated Fetal Bovine Serum (Atlanta Bio) and Penicillin/Streptomycin containing 500 U/mL […] and plated at 1-2×10^6 cells/mL on 10 cm tissue culture plates. Cells were kept in 37° C., 5% CO2 in between feedings/harvest.
Cells were fed every 3-4 days by removing media and unattached cells, centrifuging at 490×g for 5 minutes at 20 C with acceleration of 9, deceleration of 9, and resuspending in fresh DMEM (Gibco) and 10% Heat Inactivated Fetal Bovine Serum (Atlanta Bio) and Penicillin/Streptomycincontaining 500 U/mL GM-CSF. Resuspended cells were seeded back onto 10 cm tissue culture plates and incubated at 37° C., 5% CO2.
After complete cell attachment, culture supernatant was removed and cultures were washed 1× with 5 mL PBS. A total of 3 mL room temperature Cellstripper was added and cultures were incubated at 37° C., 5% CO2 for approximately 10 minutes until cells were rounded and beginning to detach. Cell scraper was used to completely detach cells from plate. Collected cell were spun down at 490 g for 5 min at room temperature and resuspended in 10% DMSO in Heat Inactivated Fetal Bovine Serum and immediately frozen in −80 C.
Primary human PMBC derived macrophages were seeded on day 0 at 3.0E4 cells per well in 96-well microplates (ThermoFisher) in Dulbecco's Modified Eagle Medium (DMEM) (Gibco) supplemented with penicillin-streptomycin (Hyclone) and 10% heat inactivated fetal bovine serum (HI-FBS) (Atlanta Bio) and incubated overnight at 37° C., 5% CO2. On day 1, cells were washed once with 150 uL per well DPBS (Gibco) and treated with 75 uL of: • a. Amino acid free DMEM (US Biologicals) containing a defined custom amino acid concentration based on the mean physiological concentrations in blood based on values published in the Human Metabolome Database (HMDB), with 6 mM glucose, 1 mM sodium pyruvate, 10 mM HEPES, 0.2% primocin (InVivoGen); or • b. The same medium described above with one amino acid at various concentrations including complete dropout. […]

## N=C(N)NCCC[C@H](N)C(=O)O [Arginine, L-Arginine]
[1]
  IL-6 cytokine secretion, in words: no significant effect
[2]
  MCP-1 chemokine secretion, in words: no significant impact
[3]; Donor 1, Conc. 109 μM (baseline), LPS 0.15 ng/mL
  TNFa Measurements Mean (baseline subtracted): 0

## NC(=O)CC[C@H](N)C(=O)O [Glutamine, L-Glutamine]
[1]; donor 1, Conc. 749 μM
  Fold Change IL-6 Secretion Normalized Per Cell, Mean: 0.6320
[1]; donor 1, Conc. 3747 μM
  Fold Change IL-6 Secretion Normalized Per Cell, Mean: 0.5460
[1]; donor 1, Conc. 11242 μM
  Fold Change IL-6 Secretion Normalized Per Cell, Mean: 0.5136
[1]; donor 1, Conc. 22484 μM
  Fold Change IL-6 Secretion Normalized Per Cell, Mean: 0.5138
[1]; donor 2, Conc. 749 μM
  Fold Change IL-6 Secretion Normalized Per Cell, Mean: 0.7673
[1]; donor 2, Conc. 11242 μM
  Fold Change IL-6 Secretion Normalized Per Cell, Mean: 0.6478
[1]; donor 2, Conc. 22484 μM
  Fold Change IL-6 Secretion Normalized Per Cell, Mean: 0.5993
[1]
  IL-6 cytokine secretion, in words: significantly reduced IL-6 secretion in both donors
[2]; donor 3, 749 μM
  Fold Change MCP1 Secretion Normalized Per Cell, Mean: 0.7048
[2]; donor 3, 3747 μM
  Fold Change MCP1 Secretion Normalized Per Cell, Mean: 0.6036
[2]; donor 3, 11242 μM
  Fold Change MCP1 Secretion Normalized Per Cell, Mean: 0.6106
[2]; donor 3, 22484 μM
  Fold Change MCP1 Secretion Normalized Per Cell, Mean: 0.6212
[2]; donor 4, 749 μM
  Fold Change MCP1 Secretion Normalized Per Cell, Mean: 0.7782
[2]; donor 4, 3747 μM
  Fold Change MCP1 Secretion Normalized Per Cell, Mean: 0.6639
[2]; donor 4, 11242 μM
  Fold Change MCP1 Secretion Normalized Per Cell, Mean: 0.7129
[2]; donor 4, 22484 μM
  Fold Change MCP1 Secretion Normalized Per Cell, Mean: 0.7039
[2]
  MCP-1 chemokine secretion, in words: reduced MCP1 secretion in both donors but was only statistically significant in one of two donors
[3]; Donor 3, Conc. 749 μM (baseline)
  TNFa Measurements Mean (baseline subtracted): 0
[3]; Donor 2, 0.15 ng/mL LPS
  LPS-induced TNFa secretion, in words: increased
[3]; Donor 3, 0.15 ng/mL LPS
  LPS-induced TNFa secretion, in words: increased

## CC[C@H](C)[C@H](N)C(=O)O [Isoleucine, L-Isoleucine]
[1]; donor 1, Conc. 1328 μM
  Fold Change IL-6 Secretion Normalized Per Cell, Mean: 1.0233
[1]; donor 1, Conc. 3320 μM
  Fold Change IL-6 Secretion Normalized Per Cell, Mean: 1.1156
[1]; donor 1, Conc. 6639 μM
  Fold Change IL-6 Secretion Normalized Per Cell, Mean: 1.0859
[1]; donor 2, Conc. 1328 μM
  Fold Change IL-6 Secretion Normalized Per Cell, Mean: 1.1020
[1]; donor 2, Conc. 3320 μM
  Fold Change IL-6 Secretion Normalized Per Cell, Mean: 0.9096
[1]; donor 2, Conc. 6639 μM
  Fold Change IL-6 Secretion Normalized Per Cell, Mean: 1.1648
[1]
  IL-6 cytokine secretion, in words: no significant effect
[2]; donor 3, 1328 μM
  Fold Change MCP1 Secretion Normalized Per Cell, Mean: 1.5550
[2]; donor 3, 3320 μM
  Fold Change MCP1 Secretion Normalized Per Cell, Mean: 1.2169
[2]; donor 3, 6639 μM
  Fold Change MCP1 Secretion Normalized Per Cell, Mean: 1.2084
[2]; donor 4, 1328 μM
  Fold Change MCP1 Secretion Normalized Per Cell, Mean: 1.3338
[2]; donor 4, 3320 μM
  Fold Change MCP1 Secretion Normalized Per Cell, Mean: 0.8830
[2]; donor 4, 6639 μM
  Fold Change MCP1 Secretion Normalized Per Cell, Mean: 0.9103
[3]; Donor 1, Conc. 66 μM (baseline), LPS 0.15 ng/mL
  TNFa Measurements Mean (baseline subtracted): 0
[3]; Donor 2, 0.15 ng/mL LPS
  LPS-induced TNFa secretion, in words: increased

## CC(C)C[C@H](N)C(=O)O [Leucine, L-Leucine]
[1]; donor 1, Conc. 3054 μM
  Fold Change IL-6 Secretion Normalized Per Cell, Mean: 1.1762
[1]; donor 1, Conc. 7635 μM
  Fold Change IL-6 Secretion Normalized Per Cell, Mean: 1.1215
[1]; donor 1, Conc. 15270 μM
  Fold Change IL-6 Secretion Normalized Per Cell, Mean: 1.0767
[1]; donor 2, Conc. 3054 μM
  Fold Change IL-6 Secretion Normalized Per Cell, Mean: 1.0011
[1]; donor 2, Conc. 7635 μM
  Fold Change IL-6 Secretion Normalized Per Cell, Mean: 0.9574
[1]; donor 2, Conc. 15270 μM
  Fold Change IL-6 Secretion Normalized Per Cell, Mean: 1.0183
[1]
  IL-6 cytokine secretion, in words: no significant effect
[2]; donor 3, 3054 μM
  Fold Change MCP1 Secretion Normalized Per Cell, Mean: 1.1479
[2]; donor 3, 7635 μM
  Fold Change MCP1 Secretion Normalized Per Cell, Mean: 1.3054
[2]; donor 3, 15270 μM
  Fold Change MCP1 Secretion Normalized Per Cell, Mean: 1.1808
[2]; donor 4, 3054 μM
  Fold Change MCP1 Secretion Normalized Per Cell, Mean: 1.5342
[2]; donor 4, 7635 μM
  Fold Change MCP1 Secretion Normalized Per Cell, Mean: 1.7129
[2]; donor 4, 15270 μM
  Fold Change MCP1 Secretion Normalized Per Cell, Mean: 1.5745
[2]
  MCP-1 chemokine secretion, in words: no significant impact
[3]; Donor 2, Conc. 153 μM (baseline), LPS 0.15 ng/mL
  TNFa Measurements Mean (baseline subtracted): 0
[3]; Donor 2, 0.15 ng/mL LPS
  LPS-induced TNFa secretion, in words: increased
